Patent publication US12122767B2, “Bicyclic heterocycles as FGFR inhibitors” (Incyte Corporation, priority 2019, dated 2024)

Biological target: T1, FGFR3 enzyme (Millipore) (Homo sapiens, UniProt P22607)
T1 construct: purchased Millipore
Assay: FGFR Enzymatic Assay (peptide phosphorylation, FRET)
Format: biochemical
Conditions: pre-incubated for 4 hours; ATP 140 μM, peptide 500 nM
Description: The inhibitor potency of the exemplified compounds was measured in an enzyme assay that measures peptide phosphorylation using FRET measurements to detect product formation. Inhibitors were serially diluted in DMSO and a volume of 0.5 μL was transferred to the wells of a 384-well plate. For FGFR3, a 10 μL volume of FGFR3 enzyme (Millipore) diluted in assay buffer (50 mM HEPES, 10 mM MgCl2, 1 mM EGTA, 0.01% Tween-20, 5 mM DTT, pH 7.5) was added to the plate and pre-incubated for a time between 5-10 minutes and up to 4 hours. Appropriate controls (enzyme blank and enzyme with no inhibitor) were included on the plate. The assay was initiated by the addition of a 10 μL solution containing biotinylated EQEDEPEGDYFEWLE peptide substrate (SEQ ID NO: 1) and ATP (final concentrations of 500 nM and 140 μM respectively) in assay buffer to the wells. The plate was incubated at 25° C. for 1 hr. The reactions were ended with the addition of 10 μL/well of quench solution (50 mM Tris, 150 mM NaCl, 0.5 mg/mL BSA, pH 7.8; 30 mM EDTA with Perkin Elmer Lance Reagents at 3.75 nM Eu-antibody PY20 and 180 nM APC-Streptavidin). The plate was allowed to equilibrate for ˜1 hr before scanning the wells on a PheraStar plate reader (BMG Labtech).
GraphPad prism3 was used to analyze the data. The IC50 values were derived by fitting the data to the equation for a sigmoidal dose-response with a variable slope. Y=Bottom+(Top-Bottom)/(1+10^((Log IC50−X)*HillSlope)) where X is the logarithm of concentration and Y is the response.
Table 1 provides IC50 data for compounds of the invention assayed in the FGFR Enzymatic Assay after dilution in assay buffer, added to the plate and pre-incubated for 4 hours.

T1 sequence (P22607 23-806): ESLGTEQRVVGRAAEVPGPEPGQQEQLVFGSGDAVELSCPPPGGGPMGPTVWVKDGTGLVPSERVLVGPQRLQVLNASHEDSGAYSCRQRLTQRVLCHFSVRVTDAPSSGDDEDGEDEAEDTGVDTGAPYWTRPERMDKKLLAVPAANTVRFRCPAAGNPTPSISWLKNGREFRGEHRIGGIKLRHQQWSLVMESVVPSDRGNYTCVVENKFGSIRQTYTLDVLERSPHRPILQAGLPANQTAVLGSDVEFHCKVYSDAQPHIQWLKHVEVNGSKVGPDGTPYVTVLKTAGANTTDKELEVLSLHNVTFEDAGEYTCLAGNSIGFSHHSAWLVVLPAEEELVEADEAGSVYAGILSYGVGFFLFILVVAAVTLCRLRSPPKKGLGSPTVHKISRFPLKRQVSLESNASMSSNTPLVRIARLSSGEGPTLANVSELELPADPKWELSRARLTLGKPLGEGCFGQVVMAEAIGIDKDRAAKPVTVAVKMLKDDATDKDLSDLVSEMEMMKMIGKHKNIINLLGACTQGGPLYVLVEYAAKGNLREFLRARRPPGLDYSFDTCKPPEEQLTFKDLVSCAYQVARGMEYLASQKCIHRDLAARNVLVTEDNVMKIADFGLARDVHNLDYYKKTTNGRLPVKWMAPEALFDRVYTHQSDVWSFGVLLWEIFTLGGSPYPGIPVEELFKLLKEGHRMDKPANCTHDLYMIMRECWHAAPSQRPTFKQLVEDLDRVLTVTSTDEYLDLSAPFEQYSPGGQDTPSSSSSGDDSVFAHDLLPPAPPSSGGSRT

`COc1cc2[nH]nc(-c3ccc(N4CCN(C)CC4)nc3)c2cc1C(=O)Nc1c(C)cccc1C` [Example 26, N-(2,6-Dimethylphenyl)-6-methoxy-3-(6-(4-methylpiperazin-1-yl)pyridin-3-yl)-1H-indazole-5-carboxamide] and `COc1cc2[nH]nc(-c3ccc(N4CCN(C)CC4)cc3)c2cc1C(=O)Nc1c(C)cccc1C` [Example 21, N-(2,6-Dimethylphenyl)-6-methoxy-3-(4-(4-methylpiperazin-1-yl)phenyl)-1H-indazole-5-carboxamide] cannot be ordered by IC50: less than 10 nM for the first, less than 10 nM for the second.

`COc1cc2[nH]nc(-c3cnn(C)c3)c2cc1C(=O)Nc1c(C)cccc1C(F)(F)F` [Example 4, 6-Methoxy-3-(1-methyl-1H-pyrazol-4-yl)-N-(2-methyl-6-(trifluoromethyl)phenyl)-1H-indazole-5-carboxamide] and `COc1cc2[nH]nc(-c3cnn(C)c3)c2cc1C(=O)Nc1c(C)cccc1Cl` [Example 3, N-(2-Chloro-6-methylphenyl)-6-methoxy-3-(1-methyl-1H-pyrazol-4-yl)-1H-indazole-5-carboxamide] cannot be ordered by IC50: less than 10 nM for the first, less than 10 nM for the second.

`COC(=O)N1CC(n2cc(-c3n[nH]c4cc(OC)c(C(=O)Nc5c(C)cccc5C)cc34)cn2)C1` [Example 31, Methyl 3-(4-(5-((2,6-dimethylphenyl)carbamoyl)-6-methoxy-1H-indazol-3-yl)-1H-pyrazol-1-yl)azetidine-1-carboxylate] and `CCOC(=O)N1CC(n2cc(-c3n[nH]c4cc(OC)c(C(=O)Nc5c(C)cccc5C)cc34)cn2)C1` [Example 23, Ethyl 3-(4-(5-((2,6-Dimethylphenyl)carbamoyl)-6-methoxy-1H-indazol-3-yl)-1H-pyrazol-1-yl)azetidine-1-carboxylate] cannot be ordered by IC50: less than 10 nM for the first, less than 10 nM for the second.

Compared with `Cn1cc(-c2n[nH]c3cc(Cl)c(C(=O)Nc4c(F)cccc4Cl)cc23)cn1` [Example 16, 6-Chloro-N-(2-chloro-6-fluorophenyl)-3-(1-methyl-1H-pyrazol-4-yl)-1H-indazole-5-carboxamide], `COc1cc2[nH]nc(-c3cnn(C4CCC4)c3)c2cc1C(=O)Nc1c(F)cccc1Cl` [Example 17, N-(2-Chloro-6-fluorophenyl)-3-(1-cyclobutyl-1H-pyrazol-4-yl)-6-methoxy-1H-indazole-5-carboxamide] is lower in IC50: no less than 200 nM for the first, less than 10 nM for the second. The second is the more potent here.

Compared with `COc1cc2[nH]nc(-c3cnn(C)c3)c2cc1C(=O)Nc1c(C)cc(F)cc1C` [Example 5, N-(4-Fluoro-2,6-dimethylphenyl)-6-methoxy-3-(1-methyl-1H-pyrazol-4-yl)-1H-indazole-5-carboxamide], `COc1cc2[nH]nc(-c3cnn(C)c3)c2cc1C(=O)Nc1c(C)cccc1OC` [Example 9, 6-Methoxy-N-(2-methoxy-6-methylphenyl)-3-(1-methyl-1H-pyrazol-4-yl)-1H-indazole-5-carboxamide] is higher in IC50: less than 10 nM for the first, 30 to 200 nM for the second.

`COc1cc2[nH]nc(-c3cnn(C4CCN(C)CC4)c3)c2cc1C(=O)Nc1c(C)cccc1C` [Example 34, N-(2,6-Dimethylphenyl)-6-methoxy-3-(1-(1-methylpiperidin-4-yl)-1H-pyrazol-4-yl)-1H-indazole-5-carboxamide] and `COc1cc2[nH]nc(-c3cnn(C4CCC4)c3)c2cc1C(=O)Nc1c(C)cccc1C` [Example 43, 3-(1-Cyclobutyl-1H-pyrazol-4-yl)-N-(2,6-dimethylphenyl)-6-methoxy-1H-indazole-5-carboxamide] cannot be ordered by IC50: less than 10 nM for the first, less than 10 nM for the second.

Work on `COc1cc2[nH]nc(-c3cnn(C4CCOC4)c3)c2cc1C(=O)Nc1c(C)cccc1C` (stereo not shown) [Example 36, N-(2,6-Dimethylphenyl)-6-methoxy-3-(1-(tetrahydrofuran-3-yl)-1H-pyrazol-4-yl)-1H-indazole-5-carboxamide] yielded an IC50 of less than 10 nM.
